From US10233186B2, “Inhibitors of activin receptor-like kinase” (BLUEPRINT MEDICINES CORPORATION, priority 2016, dated 2019)

Assays:
[1] = target: T1, ALK2 R206H (GST-tagged mutant ALK2) (Homo sapiens, UniProt Q04771, R206H); assay: ALK binding assay (LANTHASCREEN TR-FRET competitive binding, displacement of Kinase Tracer 178); settings: ALK2 R206H, LANTHASCREEN TR-FRET competitive binding; read-out: Binding Assay (IC50)
T1 construct: purchased Carna Bioscience or ThermoFisher 09-148 or PV6232
T1 sequence (Q04771 21-509 R206H): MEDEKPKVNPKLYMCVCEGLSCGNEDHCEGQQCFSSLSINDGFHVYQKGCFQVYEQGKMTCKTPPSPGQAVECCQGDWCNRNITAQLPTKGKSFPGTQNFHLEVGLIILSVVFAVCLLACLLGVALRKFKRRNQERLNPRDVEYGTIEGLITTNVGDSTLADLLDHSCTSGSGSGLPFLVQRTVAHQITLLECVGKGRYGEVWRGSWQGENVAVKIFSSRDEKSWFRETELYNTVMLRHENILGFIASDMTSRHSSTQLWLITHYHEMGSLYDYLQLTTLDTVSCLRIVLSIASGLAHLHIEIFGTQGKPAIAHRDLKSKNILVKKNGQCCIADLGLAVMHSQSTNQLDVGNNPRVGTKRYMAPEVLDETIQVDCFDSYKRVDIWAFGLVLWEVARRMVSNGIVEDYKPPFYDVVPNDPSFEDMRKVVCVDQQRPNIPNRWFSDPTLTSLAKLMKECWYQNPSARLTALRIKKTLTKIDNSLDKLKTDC

human ALK2 R206H = target: T2, human ALK2 R206H (Homo sapiens, UniProt Q04771, R206H); assay: Cell-based ALK2-R206H cell activity assay (Smad1-Ser463/Ser465 phosphorylation by AlphaLISA in HEK293-ALK2-R206H cells); settings: read-out: Cell Line (Cell Assay IC50)
T2 construct: expressed in transfected cells; host or cells: HEK293 (ATCC CRL1573), lentivirus transduction, blasticidin selection
T2 sequence (Q04771 21-509 R206H): T1 sequence (Q04771 21-509 R206H)
Method in brief: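 Stable HEK293 cells expressing C-terminally FLAG-tagged human ALK2 R206H (lentiviral, blasticidin-selected) were treated with compounds in 10-point, 3-fold dilutions from 10 μM or 1 μM top, in duplicate. Smad1 Ser463/Ser465 phosphorylation was read by AlphaLISA.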

Compound | IC50 [1] | IC50 (human ALK2 R206H)
CC(C)N1CCC(c2ccc(-c3cc4c(N5CCN(C(=O)OC6COC6)CC5)ccnn4c3)cc2)(C(F)(F)F)CC1 [Compound 747] | < 0.01 µM | < 0.1 µM
O=C(C1CC1)N1CCN(c2ccnn3cc(-c4ccc(O[C@@H]5CCCNC5)cc4)cc23)CC1 [Compound 162] | < 0.01 µM | < 0.1 µM
CC(C)N1CC2(CN(c3ccc(-c4cc5c(N6CCN(C(=O)C7CC7)CC6)ccnn5c4)cc3)C2)C1 [Compound 308] | < 0.01 µM | < 0.1 µM
CC(C)N1CC[C@H](c2ccc(-c3cc4c(N5CCN(C(=O)[C@H]6CC[C@H](O)CC6)CC5)ccnn4c3)cc2)C1 [Compound 418] | < 0.01 µM | < 0.1 µM
CCN1CCN(c2ccc(-c3cc4c(N5CCN(C(=O)[C@H]6CC[C@H](O)CC6)CC5)ccnn4c3)cc2)CC1 [Compound 422] | < 0.01 µM | < 0.1 µM
CCOC(=O)N1CCN(c2ccnn3cc(-c4ccc(C5(C#N)CCNCC5)cc4)cc23)CC1 [Compound 483] | < 0.01 µM | < 0.1 µM
O=C(C1CC1)N1CCN(c2ccnn3cc(-c4ccc(C5CNCCO5)cc4)cc23)CC1 (centres unmarked) [Compound 129] | < 0.01 µM | < 0.1 µM
CCN1CCN(c2ccc(-c3cc4c(N5CCN(C(=O)N6CC(C#N)C6)CC5)ccnn4c3)cc2)CC1 [Compound 376] | < 0.01 µM | < 0.1 µM
CCN1CCN(c2ccc(-c3cc4c(N5CCN(C(=O)C6CC(C#N)C6)CC5)ccnn4c3)cc2)CC1 (centres unmarked) [Compound 367] | < 0.01 µM | < 0.1 µM
CC(=O)N1CC(OC(=O)N2CCN(c3ccnn4cc(-c5ccc([C@@H]6CCCN(C(C)C)C6)cc5)cc34)CC2)C1 [Compound 853] | < 0.01 µM | 0.1 to 0.5 µM
CC(C)N1CCC(c2ccc(-c3cc4c(N5CCN(C(=O)C6CCOC6)CC5)ccnn4c3)cc2)CC1 (centres unmarked) [Compound 812] | < 0.01 µM | 0.1 to 0.5 µM
CCOC(=O)N1CCN(c2ccnn3cc(-c4ccc([C@H]5CCCN(C(C)C)C5)cn4)cc23)CC1 [Compound 545] | < 0.01 µM | < 0.1 µM
CC(C)N1CCN(C)[C@H](c2ccc(-c3cc4c(N5CCN(C(=O)C6CC6)CC5)ccnn4c3)cc2)C1 [Compound 568] | < 0.01 µM | < 0.1 µM
CC(C)N1CCC(COC(F)F)(c2ccc(-c3cc4c(N5CCN(C(=O)C6CC6)CC5)ccnn4c3)cc2)CC1 [Compound 859] | < 0.01 µM | < 0.1 µM
CC(C)N1CC[C@@H](OC(F)F)[C@H](c2ccc(-c3cc4c(N5CCN(C(=O)C6CC6)CC5)ccnn4c3)cc2)C1 [Compound 849] | < 0.01 µM | < 0.1 µM
CCOC(=O)N1CCN(c2ccnn3cc(-c4ccc([C@]5(F)CCCN(C(C)C)C5)cc4)cc23)CC1 [Compound 610] | < 0.01 µM | < 0.1 µM
CCNC(=O)N1CCN(c2ccnn3cc(-c4ccc([C@H]5CCCN(C(C)C)C5)cn4)cc23)CC1 [Compound 539] | < 0.01 µM | < 0.1 µM
O=C(OC1COC1)N1CCN(c2ccnn3cc(-c4ccc(N5CCNCC5)cn4)cc23)CC1 [Compound 776] | < 0.01 µM | < 0.1 µM
COC1(c2ccc(-c3cc4c(N5CCN(C(=O)C6CC6)CC5)ccnn4c3)nc2)CCN([C@@H](C)COC(F)F)CC1 [Compound 886] | < 0.01 µM | < 0.1 µM
O=C(C1CC1)N1CCN(c2ccnn3cc(-c4cnn(C5CCCNC5)c4)cc23)CC1 (centres unmarked) [Compound 116] | < 0.01 µM | < 0.1 µM
CC(C)N1CC[C@H](c2ccc(-c3cc4c(N5CCN(C(=O)[C@H]6CC[C@H](C#N)CC6)CC5)ccnn4c3)nc2)C1 [Compound 703] | < 0.01 µM | < 0.1 µM
CC(C)N1CCN[C@H](c2ccc(-c3cc4c(N5CCN(C(=O)C6CC6)CC5)ccnn4c3)cc2)C1 [Compound 517] | < 0.01 µM | < 0.1 µM
CCN1CCOC(c2ccc(-c3cc4c(N5CCN(C(=O)C6CC6)CC5)ccnn4c3)cc2)C1 (centres unmarked) [Compound 214, cyclopropyl(4-(6-(4-(4-ethylmorpholin-2-yl)phenyl)pyrrolo[1,2-b]pyridazin-4-yl)piperazin-1-yl)methanone] | 0.01 to 0.05 µM | 0.1 to 0.5 µM
CCOC(=O)N1CCN(c2ccnn3cc(-c4ccc([C@]5(OC)CCCNC5)cc4)cc23)CC1 [Compound 777] | < 0.01 µM | < 0.1 µM
CC(C)N1CCC[C@](F)(c2ccc(-c3cc4c(N5CCN(C(=O)OC6COC6)CC5)ccnn4c3)cc2)C1 [Compound 691] | < 0.01 µM | < 0.1 µM
CC(C)(O)C(N)c1ccc(-c2cc3c(N4CCN(C(=O)OC5COC5)CC4)ccnn3c2)cc1 (centres unmarked) [Compound 779] | < 0.01 µM | < 0.1 µM

Compound | IC50 [1] | IC50 (human ALK2 R206H)
CCOC1(c2ccc(-c3cc4c(N5CCN(C(=O)NC(C)C)CC5)ccnn4c3)nc2)CCN(C(C)CF)CC1 (centres unmarked) [Compound 860] | < 0.01 µM | < 0.1 µM
CC(C)NC(=O)N1CCN(c2ccnn3cc(-c4ccc(N5CCN(C(C)C)CC5)cc4)cc23)CC1 [Compound 348] | < 0.01 µM | < 0.1 µM
CCNC(=O)N1CCN(c2ccnn3cc(-c4ccc([C@]5(OC)CCCN(C(C)C)C5)c(F)c4)cc23)CC1 [Compound 699] | < 0.01 µM | < 0.1 µM
CC(C)N1CCC[C@@H](c2ccc(-c3cc4c(N5CCN(C(=O)OC6COC6)CC5)ccnn4c3)nc2)C1 [Compound 635] | < 0.01 µM | < 0.1 µM
CC(C)N1CCC[C@@H](c2ccc(-c3cc4c(N5CCN(C(=O)C6CC6)CC5)ccnn4c3)cc2)C1 [Compound 248] | < 0.01 µM | < 0.1 µM
CO[C@@]1(c2ccc(-c3cc4c(N5CCN(C(=O)C6CC6)CC5)ccnn4c3)cc2)CCCNC1 [Compound 490] | < 0.01 µM | < 0.1 µM
CC(C)NC(C)(CO)c1ccc(-c2cc3c(N4CCN(C(=O)OC5COC5)CC4)ccnn3c2)cc1 (centres unmarked) [Compound 804] | < 0.01 µM | < 0.1 µM
CCNC(=O)N1CCN(c2ccnn3cc(-c4ccc([C@H]5CCCN5C(C)C)nc4)cc23)CC1 [Compound 497] | < 0.01 µM | < 0.1 µM
CC(C)N1CCC(c2ccc(-c3cc4c(N5CCN(C(=O)[C@H]6C[C@@H]6C#N)CC5)ccnn4c3)cc2)CC1 [Compound 365] | < 0.01 µM | < 0.1 µM
CCOC(=O)N1CCN(c2ccnn3cc(-c4ccc(N5CCN(C(C)C)CC5)cc4)cc23)CC1 [Compound 295] | < 0.01 µM | < 0.1 µM
CC(C)NC(=O)N1CCN(c2ccnn3cc(-c4ccc([C@H]5CCCN(C(C)C)C5)cn4)cc23)CC1 [Compound 589] | < 0.01 µM | < 0.1 µM
CCOC(=O)N1CCN(c2ccnn3cc(-c4ccc([C@@H]5CCCN(C(C)C)C5)cc4)cc23)CC1 [Compound 287] | < 0.01 µM | < 0.1 µM
CC(C)N1CCC(c2ccc(-c3cc4c(N5CCN(C(=O)OC6COC6)CC5)ccnn4c3)c(Cl)c2)CC1 [Compound 726] | < 0.01 µM | 0.1 to 0.5 µM
N[C@@H](CO)c1ccc(-c2cc3c(N4CCN(C(=O)OC5COC5)CC4)ccnn3c2)cc1 [Compound 763] | < 0.01 µM | < 0.1 µM
O=C(C1CC1)N1CCN(c2ccnn3cc(-c4ccc(N5CCNCC5)nc4)cc23)CC1 [Compound 135] | 0.01 to 0.05 µM | 0.1 to 0.5 µM
O=C(C1CC1)N1CCN(c2ccnn3cc(-c4ccc(OCC5CNC5)cc4)cc23)CC1 [Compound 134] | < 0.01 µM | 0.1 to 0.5 µM
O=C(C1CC1)N1CCN(c2ccnn3cc(-c4ccc([C@@]5(F)CCCNC5)cc4)cc23)CC1 [Compound 178] | < 0.01 µM | < 0.1 µM
CCNC(=O)N1CCN(c2ccnn3cc(-c4ccc(N5CC6(C5)CN(C(C)C)C6)cc4)cc23)CC1 [Compound 328] | < 0.01 µM | 0.1 to 0.5 µM
COC1(c2ccc(-c3cc4c(N5CCN(C(=O)C6CC6)CC5)ccnn4c3)cc2)CCCN(C(C)C)C1 (centres unmarked) [Compound 388] | < 0.01 µM | < 0.1 µM
CCO[C@@]1(c2ccc(-c3cc4c(N5CCN(C(=O)OC6COC6)CC5)ccnn4c3)cc2)CCCNC1 [Compound 816] | < 0.01 µM | < 0.1 µM
COC1(c2ccc(-c3cc4c(N5CCN(C(=O)OC(C)C)CC5)ccnn4c3)cc2)CCN(C(C)C)CC1 [Compound 685] | < 0.01 µM | < 0.1 µM
CC(C)N1CCC[C@H](c2ccc(-c3cc4c(N5CCN(C(=O)OC6COC6)CC5)ccnn4c3)cc2F)C1 [Compound 693] | < 0.01 µM | < 0.1 µM
COC1(c2ccc(-c3cc4c(N5CCN(C(=O)NC(C)C)CC5)ccnn4c3)c(F)c2)CCN(C(C)C)CC1 [Compound 721] | < 0.01 µM | < 0.1 µM
CC(C)N1CCC[C@@](O)(c2ccc(-c3cc4c(N5CCN(C(=O)C6CC6)CC5)ccnn4c3)cc2)C1 [Compound 325] | < 0.01 µM | < 0.1 µM
CCOC(=O)N1CCN(c2ccnn3cc(-c4ccc([C@@]5(OC)CCCNC5)cn4)cc23)CC1 [Compound 778] | < 0.01 µM | < 0.1 µM
COC1(c2ccc(-c3cc4c(N5CCN(C(=O)NC(C)C)CC5)ccnn4c3)nc2)CCNCC1 [Compound 785] | < 0.01 µM | 0.1 to 0.5 µM
